Test results as given in patent publication US12324893B2, “Triptan microporation delivery system” (PassPort Technologies, Inc., priority 2019, dated 2025).

Assay: in vivo
Settings: rat; for AUC / Cmax: hairless; for Tmax: in vivo
Method: In this study, four groups of hairless rats were tested under the following conditions: (1) Group 1 (3 mg free base API, Suc: 0.5 mg, AA: 1 mg); (2) Group 2 (6 mg free base API, Suc: 0.5 mg, AA: 1 mg); (3) Group 3 (9 mg free base API, Suc: 0.5 mg, AA: 1 mg); and (4) Group 4 (6 mg free base API per 100 μL head of saline).
The given bioavailability of Table 18 is relative bioavailability against SC injection.

CNS(=O)(=O)Cc1ccc2[nH]cc(CCN(C)C)c2c1 [Sumatriptan Succinate]
AUC (sc, 6 mg): 5380 ng·h/mL
Cmax (sc, 6 mg): 9780 ng/mL
AUC (topical or ocular, 3 mg): 2600 ng·h/mL
Cmax (topical or ocular, 3 mg): 1040 ng/mL
AUC (topical or ocular, 6 mg): 3810 ng·h/mL
Cmax (topical or ocular, 6 mg): 1400 ng/mL
AUC (topical or ocular, 9 mg): 4390 ng·h/mL
Cmax (topical or ocular, 9 mg): 1580 ng/mL
Tmax (topical or ocular, 6 mg): 1.3 h
Tmax (topical or ocular, 9 mg): 1.1 h
